Source: patent US20240317689A1, “POTASSIUM CHANNEL MODULATOR, COMPOSITION AND APPLICATION” (NEUSHEN THERAPEUTICS (SHANGHAI) CO., LTD, priority 2021, published 2024)

Tests used:
[1] = Blood-brain barrier permeability assay in mice (brain concentration after intragastric administration); format: in vivo; details: 5 mg/kg, brain tissue homogenate
Procedure: Administration Dosage of 5 mg/kg
The drug was prepared in proportion (solvent: 5% DMSO+5% Solutol+90% normal saline) to make a solution with a concentration of 0.5 mg/mL, and the mice were subjected to intragastric administration at 0.1 mL/10 g, with 3 mice per group in parallel.
After the mice were administered, the mice were anesthetized and perfused with normal saline through the heart, dissected to collect the brain tissue. The brain tissue was washed with normal saline, dried, weighed, and transferred to a 2 mL EP tube, added with normal saline according to brain tissue: normal saline=1:1 (g/mL). 3 steel balls were put in each tube on a tissue grinder, and the tissue mixture was homogenized at 60 HZ for 60 s, centrifuged at 15000 rpm at 4° C. for 10 minutes, and the supernatant was taken, which was the brain tissue homogenate.
The drug stock solution (0.5 mg/mL) was taken and diluted with acetonitrile to form standard curve working solutions with concentrations of 50, 100, 200, 500, 1000, 2000, 5000, 10000, and 20000 ng/mL, and quality control working solutions with concentrations of 100, 2000, and 10000 ng/mL. 47.5 μL of blank matrix was taken respectively, and 2.5 μL of standard curve working solution and 2.5 μL of quality control working solution were added thereto to prepare standard curve samples with concentrations of 2.5, 5, 10, 25, 50, 100, 250, 500, and 1000 ng/mL and quality control samples with concentrations of 5, 100, and 500 ng/mL. 200 μL of acetonitrile (containing the internal standard of 5 ng/mL of Loratadine) was added thereto respectively, subjected to vortex oscillation for 3 minutes, centrifuged at 15,000 rpm and 4° C. for 10 minutes, and the supernatant was taken and analyzed by LC-MS/MS to obtain a standard curve.
50 μL of brain tissue homogenate sample was taken, added with 200 μL of acetonitrile (containing the internal standard of 5 ng/mL of Loratadine), subjected to vortex oscillation for 3 minutes, centrifuged at 15,000 rpm and 4° C. for 10 minutes, and the supernatant was taken for LC-MS/MS analysis. The standard curve was combined with the analysis to obtain the corresponding concentrations in the brain.

KCNQ2/3 = target: T1, KCNQ2/3 (Homo sapiens, UniProt O43525+O43526); experiment: Half-maximal activation voltage left shift assay (whole-cell patch clamp, hKCNQ-CHO cells); format: cell-based
T1 construct: expressed in transfected cells; host or cells: CHO cells (hKCNQ-CHO)
Procedure: Example 65: Half-Maximal Activation Voltage Left Shift Assay
(§1) hKCNQ-CHO cells were cultured at 37° C. in a humidified environment of 5% CO2.
• a) Extracellular fluid (mM): NaCl 145, KCl 4, CaCl2 2, MgCl2 1, Glucose 10, HEPES 10. The pH value of the extracellular fluid was adjusted to 7.4 with NaOH, and the osmotic pressure was adjusted to about 295 mOsm. • b) Intracellular fluid (mM): KOH 31.25, KCl 120, EGTA 10, MgCl2 1.75, CaCl2 5.374, HEPES 10, Na-ATP 4. The pH value of the intracellular fluid was adjusted to 7.4 with HCl, and the osmotic pressure was adjusted to about 285 mOsm. • c) The extracellular fluid should be prepared once a week, and the intracellular fluid should be aliquoted and stored at −20° C. after preparation.
(§2) The model positive reference compound Retigabine (RTG) was dissolved with 100% DMSO and configured as a 10 mM working solution. The test compounds were dissolved with 100% DMSO and configured as a 10 mM working solution. The final concentration of DMSO in the test solution should be less than 0.3%.
(§3) Whole-cell patch clamp was performed at room temperature. The electrical signals recorded with the EPC 10 USB amplifier (HEKA Elektronik, Germany) were filtered by a 3 kHz low-pass filter, and finally recorded in PatchMaster 2×90.5 software (HEKA Elektronik, Germany). At this step, the quality control standard was that the cell high-resistance sealing was greater than 500 MOhms, and the detection current was greater than 0.4 nA.
(§4) The recording electrodes were pulled out and polished with a vertical puller (NARISHIGE PC-10, Japan) using a borosilicate glass capillary (GC150tF-10, Harvard Apparatus Co., UK). At this step, the quality control standard was that the electrode resistance was between 2 MΩ and 5 MΩ.
(§5) During the recording process of the whole-cell patch clamp, a continuous perfusion system (BT100-2J, LongerPump, China) was used to continuously perfuse the extracellular fluid. The perfusion system was installed on the stage of an upright microscope (FN-S2N, Nikon, Japan), and the perfusion head was manually positioned under the microscope.
The voltage command for detecting the amplitude of hKCNQ current was as follows: the cell was clamped from a potential of −80 mV, stepped to −120 mV, and then clamped continuously at increasing voltages of 10 mV per sweep until +60 mV, held for 1500 ms; and then the clamping voltage was lowered to −120 my and held for 500 ms; finally, the voltage returned to the clamping potential of −80 mV. The detection voltage command was repeated every 15,000 milliseconds, and the command was continuously executed during the compound test. The half-maximal voltage of the cell's hKCNQ was obtained by nonlinear fitting of the current amplitude at different clamping potentials (−120 mV to +60 mV).
Data analysis was performed using PatchMaster 2×90.5 software (HEKA Elektronik, Germany) and Excel 2013 (Microsoft, USA) software. For each cell's patch clamp recording, the half-maximal voltage (V½-test) of hKCNQ corresponding to the test compound concentration should be obtained. The left-shifted half-maximal voltage value ΔV½ (V1/2 Shift (mV)) was obtained by subtracting the half-maximal voltage of hKCNQ before compound action (V½-control) from V½-test.

[2] = tested on: MES-induced epilepsy in mice; experiment: MES mouse epilepsy model; format: in vivo; details: 5 mpk, electrical stimulation 30 minutes after administration
Procedure: Example 67: MES Mouse Epilepsy Model
• 1. The mice (10 mice per group) were transferred to the operating room to adapt to the environment 30 minutes before the experiment. • 2. The mice were administered the test compounds or positive drug (Valproate) at a specific time point. 30 minutes after the administration of Valproate or 30 minutes after the administration of the test compounds, electrical stimulation was given with ear electrodes. The stimulation parameters were a square wave with a total duration of 0.8 seconds, a frequency of 50 Hz, and an amplitude of 50 mA with an interval of 10 msec. • 3. The number and duration of hind limb tonic extension of the animal within 1 minute after the completion of the electrical stimulation was recorded, and the possible death and time of death were also recorded. • 4. After administration, the possible side effects induced by the drug were observed and recorded, and the side effects are divided into four levels: • None: Normal • Mild sedation • Moderate sedation • Severe sedation

[3] = target: T2, KCNQ2/3 potassium ion channel (Homo sapiens, UniProt O43525+O43526); experiment: KCNQ2/3 potassium ion channel activation assay (whole-cell patch clamp, hKCNQ-CHO cells); format: cell-based; details: read-out: Enhancment % (current enhancement multiple); for activation at 0.05 µM: test concentration 0.05 μM; for activation at 3 µM: test concentration 3 μM
T2 construct: expressed in transfected cells; host or cells: CHO cells (hKCNQ-CHO)
Procedure: Example 64: KCNQ2/3 Potassium Ion Channel Activation Assay
as §1
• 2.1. Extracellular fluid (mM): NaCl 145, KCl 4, CaCl2 2, MgCl2 1, Glucose 10, HEPES 10. The pH value of the extracellular fluid was adjusted to 7.4 with NaOH, and the osmotic pressure was adjusted to about 295 mOsm. • 2.2. Intracellular fluid (mM (mmol/L)): KOH 31.25, KCl 120, EGTA 10, MgCl2 1.75, CaCl2 5.374, HEPES 10, Na-ATP 4. The pH value of the intracellular fluid was adjusted to 7.4 with HCl, and the osmotic pressure was adjusted to about 285 mOsm. • 2.3. The extracellular fluid should be prepared once a week, and the intracellular fluid should be stored at −20° C. after preparation.
as §2, §3, §4, §5
The voltage command for detecting the amplitude of hKCNQ current was as follows: the cell stepped from the clamping potential of −80 mV to −30 mV, and held for 1500 ms; and then the clamping voltage was lowered to −120 my and held for 500 ms; finally, the voltage returned to the clamping potential of −80 mV. The detection voltage command was repeated every 15,000 milliseconds, and the command was continuously executed during the compound test. The quality control standard for compound action stability was the current amplitude under 5 consecutive voltage commands, and the coefficient of variation of the current amplitude was <5%.
Data analysis was performed using PatchMaster 2×90.5 software (HEKA Elektronik, Germany) and Excel 2013 (Microsoft, USA) software. For each cell's patch clamp recording, the amplitude of the hKCNQ channel current (Itest) corresponding to the test compound concentration should be obtained. The enhanced channel current was obtained by subtracting the cell's original channel current (Icontrol) from Itest and dividing by Icontrol to obtain the current enhancement multiple. That is, the current enhancement multiple (Enhancment %)=(Itest −Icontrol)/Icontrol[…].

Concentrations in the brain [1] [ng/g] | V1/2 Shift (mV) (KCNQ2/3; test concentration 50 nM) | activation at 0.05 µM [3] [%] | activation at 3 µM [3] [%] | SMILES | Protection rate for tonic extension [2] [%] | V1/2 Shift (mV) (KCNQ2/3; test concentration 300 nM)
257 | −16.46 | 50 to 100 | > 100 | Cc1cc(N2CCCc3cc(OC(C)C)c(F)cc3C2)cc(C)c1NC(=O)CC(C)(C)C [Compound 035, N-(4-(8-fluoro-7-isopropoxy-1,3,4,5-tetrahydro-2H-benzo[c]azepin-2-yl)-2,6-dimethylphenyl)-3,3-dimethylbutanamide] | 100 | –
– | −2.92 | > 100 | > 100 | Cc1cc(N2CCCc3cc(OC4CCCC4)ccc3C2)cc(C)c1NC(=O)CC(C)(C)C [Compound 011, N-(4-(7-(cyclopentyloxy)-1,3,4,5-tetrahydro-2H-benzo[c]azepin-2-yl)-2,6-dimethylphenyl)-3,3-dimethylbutanamide] | 90 | −21.98
– | – | – | > 100 | Cc1cc(N2CCCc3cc(OC4CC4)c(F)cc3C2)cc(C)c1NC(=O)CC(C)(C)C [Compound 042, N-(4-(7-cyclopropoxy-8-fluoro-1,3,4,5-tetrahydro-2H-benzo[c]azepin-2-yl)-2,6-dimethylphenyl)-3,3-dimethylbutanamide] | – | –
– | – | < 50 | 50 to 100 | CSc1ccc2c(c1)CCCN(c1cc(C)c(NC(=O)CC(C)(C)C)c(C)c1)C2 [Compound 014, N-(2,6-dimethyl-4-(7-(methylthio)-1,3,4,5-tetrahydro-2H-benzo[c]azepin-2-yl)phenyl)-3,3-dimethylbutanamide] | – | –

Second part, the compound before the results:

SMILES | Concentrations in the brain [1] [ng/g] | V1/2 Shift (mV) (KCNQ2/3; test concentration 50 nM) | activation at 0.05 µM [3] [%] | activation at 3 µM [3] [%] | Protection rate for tonic extension [2] [%] | V1/2 Shift (mV) (KCNQ2/3; test concentration 300 nM)
Cc1cc(N2CCCc3cc(OC(C)C)ccc3C2)cc(C)c1NC(=O)CC(C)(C)C [Compound 003, N-(4-(7-isopropoxy-1,3,4,5-tetrahydro-2H-benzo[c]azepin-2-yl)-2,6-dimethylphenyl)-3,3-dimethylbutanamide] | 127.5 | −7.00 | < 50 | 50 to 100 | 100 | −36.06
CCC(C)Oc1ccc2c(c1)CCCN(c1cc(C)c(NC(=O)CC(C)(C)C)c(C)c1)C2 (stereo not shown) [Compound 004, N-(4-(7-(sec-butoxy)-1,3,4,5-tetrahydro-2H-benzo[c]azepin-2-yl)-2,6-dimethylphenyl)-3,3-dimethylbutanamide] | – | −11.76 | < 50 | > 100 | – | −23.56
Cc1cc(N2CCc3cc(F)ccc3C2)cc(C)c1NC(=O)CC(C)(C)C [Xen-1101, reference compound] | 90.9 | −5.48 | – | – | – | −13.33
Cc1cc(N2CCCc3cc(O[C@H](C)C(F)(F)F)ccc3C2)cc(C)c1NC(=O)CC(C)(C)C [Compound 032, (R)—N-(2,6-dimethyl-4-(7-((1,1,1-trifluoropropan-2-yl)oxy)-1,3,4,5-tetrahydro-2H-benzo[c]azepin-2-yl)phenyl)-3,3-dimethylbutanamide] | – | −17.59 | 50 to 100 | > 100 | 100 | –
Cc1cc(N2CCCc3cc(O[C@@H](C)C(F)(F)F)ccc3C2)cc(C)c1NC(=O)CC(C)(C)C [Compound 033, (S)—N-(2,6-dimethyl-4-(7-((1,1,1-trifluoropropan-2-yl)oxy)-1,3,4,5-tetrahydro-2H-benzo[c]azepin-2-yl)phenyl)-3,3-dimethylbutanamide] | – | −44.25 | – | 50 to 100 | 100 | –
Cc1cc(N2CCCc3cc(OCCCC(F)(F)F)ccc3C2)cc(C)c1NC(=O)CC(C)(C)C [Compound 060, N-(2,6-dimethyl-4-(7-(4,4,4-trifluorobutoxy)-1,3,4,5-tetrahydro-2H-benzo[c]azepin-2-yl)phenyl)-3,3-dimethylbutanamide] | – | – | – | > 100 | – | –
